Experiments:
[1] = Toxicity in C57BL-6J mouse assessed as lung pathological change at 2 mg/kg, po measured after 10 days by hematoxylin and eosin staining analysis; type: organism-based; conditions: in vivo, 240 h, time 10 day
Alpha-mannosidase [2] = biological target: T1, Alpha-mannosidase (Canavalia ensiformis, UniProt C0HJB3); assay: Inhibition of jack bean alpha-mannosidase
T1 sequence (C0HJB3 whole entry): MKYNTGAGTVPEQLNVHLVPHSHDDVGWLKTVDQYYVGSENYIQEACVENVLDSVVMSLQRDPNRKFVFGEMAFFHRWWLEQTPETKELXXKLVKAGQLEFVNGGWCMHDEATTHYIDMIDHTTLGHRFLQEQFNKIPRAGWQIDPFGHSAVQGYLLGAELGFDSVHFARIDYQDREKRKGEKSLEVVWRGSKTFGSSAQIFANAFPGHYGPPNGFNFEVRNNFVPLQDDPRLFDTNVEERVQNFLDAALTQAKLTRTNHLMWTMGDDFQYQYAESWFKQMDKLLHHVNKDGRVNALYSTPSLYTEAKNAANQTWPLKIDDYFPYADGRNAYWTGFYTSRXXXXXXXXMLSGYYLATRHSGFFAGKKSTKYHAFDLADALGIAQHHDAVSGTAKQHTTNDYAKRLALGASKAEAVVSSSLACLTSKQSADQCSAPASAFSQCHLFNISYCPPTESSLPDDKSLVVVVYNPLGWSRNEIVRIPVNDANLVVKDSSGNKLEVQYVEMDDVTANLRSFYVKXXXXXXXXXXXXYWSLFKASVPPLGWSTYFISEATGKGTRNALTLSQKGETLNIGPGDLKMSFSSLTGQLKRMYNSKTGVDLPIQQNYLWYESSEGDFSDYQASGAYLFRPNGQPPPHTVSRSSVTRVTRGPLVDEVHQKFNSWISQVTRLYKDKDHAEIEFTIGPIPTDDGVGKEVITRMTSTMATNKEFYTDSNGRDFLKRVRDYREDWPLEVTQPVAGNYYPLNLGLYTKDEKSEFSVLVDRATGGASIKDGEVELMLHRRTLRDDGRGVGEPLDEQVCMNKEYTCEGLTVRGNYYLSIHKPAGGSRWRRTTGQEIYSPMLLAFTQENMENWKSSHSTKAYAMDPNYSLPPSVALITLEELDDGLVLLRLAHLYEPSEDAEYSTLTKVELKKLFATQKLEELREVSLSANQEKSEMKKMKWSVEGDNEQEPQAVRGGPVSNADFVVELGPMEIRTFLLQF

[3] = (§1) Inhibition of mammalian Alpha-glucosidase (unknown origin) using PNPG as substrate pretreated for 20 mins followed by substrate addition measured after 26 mins
Homo sapiens = organism: Homo sapiens; assay: as §1
Coffea arabica = assay: Potency index, ratio of miglitol Kd to test compound Kd for inhibition of Green coffee beans alpha-galactosidase
[4] = Inhibition of almond beta-glucosidase; parameters: species or system Prunus dulcis
Mus musculus [5] = assay: Hypoglycemic effect in maltose treated mouse C57BL-6J assessed as reduction in postprandial blood glucose level at 2 mg/kg, po measured after 15 mins; type: functional; parameters: scale not given: the % may be the effect or the level left; conditions: 0.25 h
[6] = Toxicity in C57BL-6J mouse assessed as increase in body weight at 2 mg/kg, po measured after 10 days; type: organism-based; conditions: in vivo, 240 h, time 10 day
[7] = Inhibition of Aspergillus niger alpha-glucosidase by Lineweaver-Burk plot
Mus musculus [8] = assay: Hypoglycemic effect in maltose treated mouse C57BL-6J assessed as reduction in postprandial blood glucose level at 1 mg/kg, po measured after 15 mins; type: functional; parameters: scale not given: the % may be the effect or the level left; conditions: 0.25 h
[9] = Inhibition of Green coffee beans alpha-galactosidase by Lineweaver-Burk plot; parameters: species or system Coffea arabica
[10] = Inhibition of Helix pomatia beta-mannosidase
[11] = Toxicity in C57BL-6J mouse assessed as increase in body weight at 2 mg/kg, po measured upto 30 days; type: organism-based; conditions: in vivo, 720 h, time <=30 day
Mus musculus [12] = assay: Hypoglycemic effect in maltose treated mouse C57BL-6J assessed as reduction in postprandial blood glucose level at 0.5 mg/kg, po measured after 15 mins; type: functional; parameters: scale not given: the % may be the effect or the level left; conditions: 0.25 h
Aspergillus niger [13] = assay: Potency index, ratio of miglitol Kd to test compound Kd for inhibition of Aspergillus niger alpha-glucosidase
Mus musculus [14] = assay: Hypoglycemic effect in maltose treated po dosed C57BL-6J mouse assessed as reduction in postprandial blood glucose level measured upto 180 mins; type: functional, organism-based; conditions: time min <=180
Mus musculus [15] = assay: Hypoglycemic effect in maltose treated C57BL-6J mouse assessed as reduction in postprandial blood glucose level at 2 mg/kg, po measured after 30 mins; type: functional; parameters: scale not given: the % may be the effect or the level left; conditions: 0.5 h
Alpha-mannosidase [16] = biological target: T1, Alpha-mannosidase; assay: Inhibition of Jack bean alpha-mannosidase by Lineweaver-Burk plot
[17] = Toxicity in C57BL-6J mouse assessed as liver pathological change at 2 mg/kg, po measured after 10 days by hematoxylin and eosin staining analysis; type: organism-based; conditions: in vivo, 240 h, time 10 day
Mus musculus [18] = assay: Hypoglycemic effect in maltose treated mouse C57BL-6J assessed as reduction in postprandial blood glucose level at 0.5 mg/kg, po measured after 30 mins; type: functional; parameters: scale not given: the % may be the effect or the level left
[19] = biological target: T2, Alpha-mannosidase (Canavalia ensiformis) (UniProt C0HJB3); assay: Potency index, ratio of miglitol Kd to test compound Kd for inhibition of Jack bean alpha-mannosidase
T2 sequence (whole entry): T1 sequence (C0HJB3 whole entry)

[20] = Inhibition of Escherichia coli beta-galactosidase
[21] = Inhibition of Aspergillus niger alpha-glucosidase
[22] = Stability of the compound in pH 7 by UV-vis spectroscopy; type: physicochemical; conditions: buffer
[23] = Toxicity in C57BL-6J mouse assessed as spleen pathological change at 2 mg/kg, po measured after 10 days by hematoxylin and eosin staining analysis; type: organism-based; conditions: in vivo, 240 h, time 10 day
Mus musculus [24] = assay: Hypoglycemic effect in maltose treated mouse C57BL-6J assessed as reduction in postprandial blood glucose level at 1 mg/kg, po measured after 30 mins; type: functional; parameters: scale not given: the % may be the effect or the level left; conditions: 0.5 h
[25] = biological target: T2, Alpha-mannosidase (Canavalia ensiformis); assay: Potency index, ratio of DNJ-1 Kd to test compound Kd for inhibition of Jack bean alpha-mannosidase
Aspergillus niger [26] = assay: Potency index, ratio of DNJ-1 Kd to test compound Kd for inhibition of Aspergillus niger alpha-glucosidase
[27] = Inhibition of green coffee beans alpha-galactosidase; parameters: species or system Coffea arabica
[28] = Toxicity in C57BL-6J mouse assessed as kidney pathological change at 2 mg/kg, po measured after 10 days by hematoxylin and eosin staining analysis; type: organism-based; conditions: in vivo, 240 h, time 10 day
[29] = Toxicity in C57BL-6J mouse assessed as heart pathological change at 2 mg/kg, po measured after 10 days by hematoxylin and eosin staining analysis; type: organism-based; conditions: in vivo, 240 h, time 10 day
[30] = Stability of the compound in pH 2 by UV-vis spectroscopy; type: physicochemical; conditions: buffer

SMILES | Activity [1] | Kd (Alpha-mannosidase [2]) | IC50 [3] | inhibition (Homo sapiens) | Ratio (Coffea arabica) | Kd [4] | Activity (Mus musculus [5]) | Activity [6] | Ki [7] | Activity (Mus musculus [8]) | Ki [9] | Kd [10] | Activity [11] | Activity (Mus musculus [12]) | Ratio (Aspergillus niger [13]) | Activity (Mus musculus [14]) | Activity (Mus musculus [15]) | Ki (Alpha-mannosidase [16]) | Kd [20] | Kd [21] | further results
O=C1c2cc(Cl)c3c4c(Oc5ccc(OCc6cn(CCCN7C[C@H](O)[C@@H](O)[C@H](O)[C@H]7CO)nn6)cc5)cc5c6c(cc(Oc7ccc(OCc8cn(CCCN9C[C@H](O)[C@@H](O)[C@H](O)[C@H]9CO)nn8)cc7)c(c7c(Cl)cc(c2c37)C(=O)N1Cc1cn(CCCN2C[C@H](O)[C@@H](O)[C@H](O)[C@H]2CO)nn1)c64)C(=O)N(Cc1cn(CCCN2C[C@H](O)[C@@H](O)[C@H](O)[C@H]2CO)nn1)C5=O | Non-Toxic | 0.12 µM | 11.6 µM | Dose-Dependent Effect | 9.7 | Not Active | 41.3% | Non-Toxic | 13.1 µM | 29.2% | 1.43 µM | Not Active | Toxic | 22.4% | 1.5 | Dose-Dependent Effect | 37.4% | 0.12 µM | Not Active | 13.1 µM | Activity [17]: Non-Toxic; Activity (Mus musculus [18]): 15.2%; Ratio [19]: 876; Stability [22]: Stable; Activity [23]: Non-Toxic; Activity (Mus musculus [24]): 20.8%; Ratio [25]: 2310; Ratio (Aspergillus niger [26]): 4.7; Kd ([27]; read-out: Kd): 1.43 µM; Activity [28]: Non-Toxic; Activity [29]: Non-Toxic; Stability [30]: Stable
OCc1cn(CCCN2C[C@H](O)[C@@H](O)[C@H](O)[C@H]2CO)nn1 | – | 277 µM | – | – | – | Not Active | – | – | – | – | – | Not Active | – | – | – | – | – | – | Not Active | 61.6 µM | Kd [27]: Not Active
OCCN1C[C@H](O)[C@@H](O)[C@H](O)[C@H]1CO [MIGLITOL] | – | – | – | – | – | Not Active | 40.4% | – | – | 27.3% | – | Not Active | – | – | – | – | 36.6% | – | Not Active | 20.6 µM | Kd [27]: Not Active
O=C1c2cc(Cl)c3c4c(Cl)cc5c6c(cc(Oc7ccc(OCc8cn(CCCN9C[C@H](O)[C@@H](O)[C@H](O)[C@H]9CO)nn8)cc7)c(c7c(Oc8ccc(OCc9cn(CCCN%10C[C@H](O)[C@@H](O)[C@H](O)[C@H]%10CO)nn9)cc8)cc(c2c37)C(=O)N1Cc1cn(CCCN2C[C@H](O)[C@@H](O)[C@H](O)[C@H]2CO)nn1)c64)C(=O)N(Cc1cn(CCCN2C[C@H](O)[C@@H](O)[C@H](O)[C@H]2CO)nn1)C5=O | Non-Toxic | 0.017 µM | 14.4 µM | Dose-Dependent Effect | 7.2 | Not Active | 22.2% | Non-Toxic | 14.7 µM | 11.3% | 1.03 µM | Not Active | Toxic | 4% | 1.4 | Dose-Dependent Effect | – | 0.017 µM | Not Active | 14.7 µM | Activity [17]: Non-Toxic; Ratio [19]: 6180; Stability [22]: Stable; Activity [23]: Non-Toxic; Ratio [25]: 16300; Ratio (Aspergillus niger [26]): 4.2; Kd ([27]; read-out: Kd): 1.93 µM; Activity [28]: Non-Toxic; Activity [29]: Non-Toxic; Stability [30]: Stable

From ChEMBL document CHEMBL5029144, “Positional Isomeric Effects on the Optical Properties, Multivalent Glycosidase Inhibition Effect, and Hypoglycemic Effect of Perylene Bisimide-deoxynojirimycin Conjugates” (J Med Chem, 2021)
